Laboratory results: US20240262845A1, “PYRIDINIUM SALTS, METHODS OF MAKING, AND METHODS OF USE” (UNIVERSITY OF WYOMING, priority 2023, published 2024)
Counter-ions that a name gives are not always drawn.

How the values were obtained:
[1] = molecular target: T1, recombinant NPM1 C-terminal domain (residues 240-294) (Homo sapiens, UniProt P06748); assay: In vitro NPM1 C-terminal domain labeling (Western blot); type: biochemical; conditions: 10 μM NPM1, 100 μM probe, 100 μM glutathione, HEPES pH 7.5, about 440 nm, 15 min
T1 construct: 6×His (N, cleaved yes); made in house; host or cells: NiCo21(DE3) E. coli
Procedure: In vitro NPM1 C-terminal domain labeling and characterization: Labeling of recombinant NPM1 with the pyridinium salt 2b was performed with the following conditions: 10 μM NPM1 was treated with DMSO or 100 μM pyridinium salt 2b (2% DMSO) in 50 mM HEPES pH 7.5, 150 mM NaCl, 1.5 mM MgCl2, and 100 μM glutathione (GSH). Samples were irradiated at 450 nm (Kessil PR160L-440) at 100% intensity for 15 minutes at room temperature or 50° C. The reaction mixture was quenched with the addition of 4X LDS buffer (Invitrogen) containing 10 mM DTT (Pierce) and boiled for 10 minutes before resolving proteins on 4-12% Bis-Tris NuPAGE gels (Invitrogen), transferred onto a Trans-Blot Turbo Mini 0.2 μm nitrocellulose membrane (BioRad), blocked with 5% BSA in tris-buffered saline with Tween-20 (TBST), and incubated with HRP-linked anti-biotin (Cell Signaling Technology, #7075).

Leuprolide = assay: Photochemical labeling of leuprolide with pyridinium salt (General Procedure B, LC/MS); type: biochemical; conditions: 10 μM leuprolide, 100 μM pyridinium salt, 300 μM glutathione, 30 min
Procedure: General Procedure B: Photochemical Irradiation of Peptides and Proteins: To a 2 mL Pyrex LC/MS vial (Thermo model #03-391-39) were sequentially added solutions containing the desired biomolecule, glutathione (GSH), pyridinium salt, and ammonium acetate (NH4OAc). The resulting solution was diluted to a final volume of 500 μL and then sparged using nitrogen for a minimum of 30 minutes prior to irradiation. The actively sparging solution was then placed in an EvoluChem™ PhotoRedOx Box photoreactor that was equipped with a Kessil, PR160 427 nm LED Lamp and was then irradiated (100% lamp intensity) for the designated time at room temperature while maintaining active sparging. The resultant reaction mixture was then analyzed directly by LC/MS. Analysis of labeling outcomes using LC/MS was performed either by extracted ion chromatogram intensities (method A) or by integrating the area under the peaks associated with peptide content (method B). These values were totaled, and estimated percentages were assigned according to relative intensities of peaks or ion counts.
Labeling of Leuprolide with Pyridinium Salt 2a (Leuprolide-2a Conjugate). […] The reaction mixture was analyzed directly by LC/MS using method B and was estimated to have proceeded with 91% conversion, a >20:1 mono:di labeled ratio, and 4% of +1 label+glutathionylation. […]

T1 sequence (P06748 240-294): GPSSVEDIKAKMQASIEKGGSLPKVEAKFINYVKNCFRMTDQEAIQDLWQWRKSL

| SMILES | Western analysis of construct labeling [1] | +1 label+glutathionylation (Leuprolide) |
| --- | --- | --- |
| COc1ccc2cc(-c3cc(C)[n+](N(C)C(=O)OCCCCC[C@H]4SC[C@H]5NC(=O)N[C@H]54)c(C)c3)ccc2c1 (stereo in doubt) [pyridinium salt 2b, 4-(6-methoxynaphthalen-2-yl)-2,6-dimethyl-1-(methyl(((5-((3aR,4R,6aS)-2-oxohexahydro-1H-thieno[3,4-d]imidazol-4-yl)pentyl)oxy)carbonyl)amino)pyridin-1-ium tetrafluoroborate] | photo-dependent labeling |  |
| COC(=O)N(C)[n+]1c(C)cc(-c2ccc3cc(OC)ccc3c2)cc1C [pyridinium salt 2a, 1-((methoxycarbonyl)(methyl)amino)-4-(6-methoxynapthalen-2-yl)-2,6-dimethylpyridin-1-ium tetrafluoroborate] |  | 4% |
